Data as given in patent US4468511A, “C-20- And C-23-Modified macrolide derivatives” (Eli Lilly and Company, priority 1983, dated 1984).
In brackets after ≈: the same amount, converted by molar mass. Like-named read-outs stand apart in the source and are kept apart here.

Assays:
Format in all cases: cell-based
[1] = system: Streptococcus pneumoniae Park I; experiment: MIC, standard agar-dilution assay
Description: (§1) Certain of the derivatives are active against some gram-negative bacteria, such as Pasteurella species. The MIC's in Table II were determined by standard agar-dilution assays. The MIC's in Table III were obtained using a conventional broth-dilution microtiter test.

[2] = system: Escherichia coli EC14; experiment: MIC, standard agar-dilution assay; settings: agar-dilution; Escherichia coli EC14; read-out: MIC
Description: as §1

[3] = system: Streptococcus pyogenes C203; experiment: MIC, standard agar-dilution assay
Description: as §1

[4] = system: Staphylococcus aureus X1.1; experiment: MIC, standard agar-dilution assay; settings: Staphylococcus aureus, X1.1
Description: as §1

[5] = system: Escherichia coli TEM; experiment: MIC, standard agar-dilution assay; settings: agar-dilution; Escherichia coli TEM; read-out: MIC
Description: as §1

[6] = system: Klebsiella pneumoniae KAE; experiment: MIC, standard agar-dilution assay; settings: agar-dilution; Klebsiella pneumoniae KAE; read-out: MIC
Description: as §1

[7] = system: Streptococcus pyogenes 9960; experiment: MIC, standard agar-dilution assay; settings: agar-dilution, Streptococcus 9960, read-out: MIC
Description: as §1

[8] = system: Streptococcus Group D X66; experiment: MIC, standard agar-dilution assay; settings: agar-dilution; Streptococcus Group D X66; read-out: MIC
Description: as §1

[9] = system: Klebsiella pneumoniae X26; experiment: MIC, standard agar-dilution assay; settings: agar-dilution; Klebsiella pneumoniae X26; read-out: MIC
Description: as §1

[10] = system: Staphylococcus aureus V41; experiment: MIC, standard agar-dilution assay
Description: as §1

[11] = system: Pasteurella multocida 40G; experiment: MIC, conventional broth-dilution microtiter test; settings: broth-dilution microtiter; Pasteurella multocida 40G; read-out: MIC
Description: as §1

[12] = system: Mycoplasma gallisepticum; experiment: MIC, conventional broth-dilution microtiter test; settings: Mycoplasmoides gallisepticum
Description: as §1

[13] = system: Pasteurella multocida 22A; experiment: MIC, conventional broth-dilution microtiter test; settings: broth-dilution microtiter; Pasteurella multocida 22A; read-out: MIC
Description: as §1

[14] = system: Pasteurella multocida 68C; experiment: MIC, conventional broth-dilution microtiter test; settings: broth-dilution microtiter; Pasteurella multocida 68C; read-out: MIC
Description: as §1

[15] = system: Pasteurella hemolytica 22C; experiment: MIC, conventional broth-dilution microtiter test; settings: broth-dilution microtiter; Pasteurella hemolytica 22C; read-out: MIC
Description: as §1

[16] = system: Mycoplasma gallisepticum 34159; experiment: MIC, conventional broth-dilution microtiter test; settings: Mycoplasmoides gallisepticum
Description: as §1

[17] = system: Mycoplasma hyorhinis; experiment: MIC, conventional broth-dilution microtiter test
Description: as §1

[18] = system: Staphylococcus aureus; experiment: MIC, conventional broth-dilution microtiter test
Description: as §1

[19] = system: Streptococcus sp. 80; experiment: MIC, conventional broth-dilution microtiter test
Description: as §1

[20] = system: Pasteurella hemolytica 41D; experiment: MIC, conventional broth-dilution microtiter test; settings: broth-dilution microtiter; Pasteurella hemolytica 41D; read-out: MIC
Description: as §1

[21] = system: Pasteurella hemolytica 23C; experiment: MIC, conventional broth-dilution microtiter test; settings: broth-dilution microtiter; Pasteurella hemolytica 23C; read-out: MIC
Description: as §1

[22] = system: Mycoplasma gallisepticum 41313; experiment: MIC, conventional broth-dilution microtiter test; settings: Mycoplasmoides gallisepticum
Description: as §1

[23] = system: Pasteurella multocida 60A; experiment: MIC, conventional broth-dilution microtiter test; settings: broth-dilution microtiter; Pasteurella multocida 60A, Avian isolate; read-out: MIC
Description: as §1

[24] = system: Pasteurella multocida 17E; experiment: MIC, conventional broth-dilution microtiter test; settings: broth-dilution microtiter; Pasteurella multocida 17E, Bovine isolate; read-out: MIC
Description: as §1

[25] = system: Staphylococcus aureus X400; experiment: MIC, standard agar-dilution assay
Description: (§2) The MIC's in Table II were determined by standard agar-dilution assays. The MIC's in Table III were obtained using a conventional broth-dilution microtiter test.

[26] = system: Haemophilus influenzae C.L.; experiment: MIC, standard agar-dilution assay; settings: agar-dilution; Haemophilus influenzae C.L., Ampicillin-sensitive strain; read-out: MIC
Description: as §2

[27] = system: Haemophilus influenzae 76; experiment: MIC, standard agar-dilution assay; settings: agar-dilution; Haemophilus influenzae 76, Ampicillin-resistant strain; read-out: MIC
Description: as §2

[28] = system: Staphylococcus epidermidis EPI1; experiment: microbe, parasite or virus in culture
Description: as §2

[29] = system: Staphylococcus aureus S13E; experiment: microbe, parasite or virus in culture
Description: as §2

[30] = system: Staphylococcus epidermidis EPI2; experiment: MIC, standard agar-dilution assay; settings: agar-dilution; Staphylococcus epidermidis EPI2; read-out: MIC
Description: as §2

[31] = system: Mycoplasma synoviae; experiment: MIC, conventional broth-dilution microtiter test; settings: Mycoplasmopsis synoviae
Description: as §1

[32] = agar-dilution, Streptococcus pyogenes C203, read-out: MIC
[33] = broth-dilution microtiter, Mycoplasma gallisepticum 34159, Resistant strain, read-out: MIC
[34] = broth-dilution microtiter, Streptococcus sp. 80, read-out: MIC
[35] = broth-dilution microtiter, Mycoplasma gallisepticum 41313, Resistant strain, read-out: MIC
[36] = Staphylococcus epidermidis, EPI1
[37] = agar-dilution, Streptococcus pneumoniae Park I, read-out: MIC
[38] = broth-dilution microtiter, Mycoplasma gallisepticum, read-out: MIC
[39] = broth-dilution microtiter, Mycoplasma hyorhinis, read-out: MIC
[40] = broth-dilution microtiter, read-out: MIC
[41] = agar-dilution, Staphylococcus epidermidis EPI1, read-out: MIC

SMILES | MIC [2] [µg/mL] | MIC [4] [µg/mL] | MIC [5] [µg/mL] | MIC [6] [µg/mL] | MIC [7] [µg/mL] | MIC [8] [µg/mL] | MIC [9] [µg/mL] | MIC [11] [µg/mL] | MIC [13] [µg/mL] | MIC [14] [µg/mL] | MIC [15] [µg/mL] | MIC [16, 33] [µg/mL] | MIC [19, 34] [µg/mL] | MIC [20] [µg/mL] | MIC [21] [µg/mL] | MIC [22, 35] [µg/mL] | MIC [23] [µg/mL] | MIC [24] [µg/mL] | MIC [26] [µg/mL] | MIC [27] [µg/mL] | further results
CCC1OC(=O)CC(O)C(C)C(OC2OC(C)C(O)C(N(C)C)C2O)C(CCN2C(=O)c3ccccc3C2=O)CC(C)C(=O)C=CC(C)=CC1CN1C(=O)c2ccccc2C1=O (centres unmarked) [Compound 31, 20,23-Di-N-Phthalimido-20,23-dideoxy-20-dihydro-OMT] | > 128 | 4 (≈ 4.66 µM) | > 128 | > 128 | 16 (≈ 18.6 µM) | 8 (≈ 9.32 µM) | > 128 | > 50 | > 50 | > 50 | > 50 | 25 (≈ 29.1 µM) | 12.5 (≈ 14.6 µM) | > 50 | > 50 | 25 (≈ 29.1 µM) | > 50 | > 50 | > 128 | > 128 | MIC ([1]; Streptococcus pneumoniae): 2 µg/mL (≈ 2.33 µM); MIC [3, 32]: 16 µg/mL (≈ 18.6 µM); MIC ([10]; Staphylococcus aureus, V41): 4 µg/mL (≈ 4.66 µM); MIC [12]: 12.5 µg/mL (≈ 14.6 µM); MIC ([17]; Mycoplasma): 50 µg/mL (≈ 58.3 µM); MIC [18]: 12.5 µg/mL (≈ 14.6 µM); MIC ([25]; agar-dilution, Staphylococcus aureus X400, Methicillin-resistant strain, read-out: MIC): 16 µg/mL (≈ 18.6 µM); MIC [28, 36]: 4 µg/mL (≈ 4.66 µM); MIC [29]: 4 µg/mL (≈ 4.66 µM)
CCC1OC(=O)CC(O)C(C)C(OC2OC(C)C(OC3CC(C)(O)C(O)C(C)O3)C(N(C)C)C2O)C(CCN2C(=O)c3ccccc3C2=O)CC(C)C(=O)C=CC(C)=CC1C (centres unmarked) [Compound 26, 20-N-Phthalimido-20-deoxy-20-dihydro-DMOT] | > 128 | 64 (≈ 74.7 µM) | > 128 | > 128 | > 128 | 128 (≈ 149 µM) | > 128 | > 50 | > 50 | > 50 | > 50 | 50 (≈ 58.3 µM) | > 50 | > 50 | > 50 | 50 (≈ 58.3 µM) | > 50 | > 50 | > 128 | > 128 | MIC [1, 37]: 8 µg/mL (≈ 9.33 µM); MIC ([3]; Streptococcus pyogenes, C203): 64 µg/mL (≈ 74.7 µM); MIC ([10]; Staphylococcus aureus, V41): 32 µg/mL (≈ 37.3 µM); MIC [12, 38]: 12.5 µg/mL (≈ 14.6 µM); MIC [17, 39]: 50 µg/mL (≈ 58.3 µM); MIC [18, 40]: > 50 µg/mL; MIC ([25]; Staphylococcus aureus, X400): 64 µg/mL (≈ 74.7 µM); MIC [30]: 32 µg/mL (≈ 37.3 µM); MIC [28, 41]: 64 µg/mL (≈ 74.7 µM); MIC [29]: 64 µg/mL (≈ 74.7 µM)
CCC1CC(C)C(=O)C=CC(C)=CC(CN2CCCCCCC2)C(CC)OC(=O)CC(O)C(C)C1OC1OC(C)C(OC(C)=O)C(N(C)C)C1OC(C)=O (centres unmarked) [Compound 57] | – | – | – | – | – | – | – | 1.56 (≈ 2.04 µM) | 1.56 (≈ 2.04 µM) | 0.78 (≈ 1.02 µM) | 0.78 (≈ 1.02 µM) | 50 (≈ 65.5 µM) | 0.195 (≈ 0.256 µM) | 0.78 (≈ 1.02 µM) | 1.56 (≈ 2.04 µM) | 50 (≈ 65.5 µM) | 1.56 (≈ 2.04 µM) | 1.56 (≈ 2.04 µM) | – | – | MIC [31]: 12.5 µg/mL (≈ 16.4 µM); MIC [12, 38]: 0.78 µg/mL (≈ 1.02 µM); MIC [17, 39]: > 50 µg/mL; MIC [18, 40]: 0.39 µg/mL (≈ 0.511 µM)
CCC1OC(=O)CC(O)C(C)C(OC2OC(C)C(OC3CC(C)(O)C(O)C(C)O3)C(N(C)C)C2O)C(CCN2C(=O)c3ccccc3C2=O)CC(C)C(=O)C=CC(C)=CC1CN1C(=O)c2ccccc2C1=O (centres unmarked) [Compound 38, 20,23-Di-N-phthalimido-20,23-dideoxy-20-dihydro-DMT] | > 128 | 64 (≈ 63.9 µM) | > 128 | > 128 | > 128 | > 128 | > 128 | > 50 | > 50 | > 50 | > 50 | – | – | > 50 | > 50 | – | > 50 | > 50 | > 128 | > 128 | MIC [1, 37]: 16 µg/mL (≈ 16 µM); MIC [3, 32]: > 128 µg/mL; MIC ([10]; agar-dilution, Staphylococcus aureus V41, Penicillin-resistant strain, read-out: MIC): 16 µg/mL (≈ 16 µM); MIC [12]: 50 µg/mL (≈ 49.9 µM); MIC [16]; 34159: 50 µg/mL (≈ 49.9 µM); MIC ([17]; Mycoplasma): 50 µg/mL (≈ 49.9 µM); MIC [18, 40]: 25 µg/mL (≈ 24.9 µM); MIC ([19]; Streptococcus, SP.80): 50 µg/mL (≈ 49.9 µM); MIC [22]; 41313: 50 µg/mL (≈ 49.9 µM); MIC ([25]; Staphylococcus aureus, X400): 64 µg/mL (≈ 63.9 µM); MIC [30]: 16 µg/mL (≈ 16 µM); MIC [28, 36]: 32 µg/mL (≈ 31.9 µM); MIC [29]: 32 µg/mL (≈ 31.9 µM)
CCC1OC(=O)CC(O)C(C)C(OC2OC(C)C(OC3CC(C)(O)C(O)C(C)O3)C(N(C)C)C2O)C(CCN2C(=O)c3ccccc3C2=O)CC(C)C(=O)C=CC(C)=CC1CO (centres unmarked) [Compound 17, 20-N-Phthalimido-20-deoxy-20-dihydro-DMT] | > 128 | 64 (≈ 73.3 µM) | > 128 | > 128 | > 128 | > 128 | > 128 | > 50 | > 50 | > 50 | > 50 | 50 (≈ 57.3 µM) | 50 (≈ 57.3 µM) | > 50 | > 50 | 50 (≈ 57.3 µM) | > 50 | > 50 | > 128 | > 128 | MIC [1, 37]: 16 µg/mL (≈ 18.3 µM); MIC [3, 32]: 128 µg/mL (≈ 147 µM); MIC ([10]; Staphylococcus aureus, V41): 64 µg/mL (≈ 73.3 µM); MIC [12]: 12.5 µg/mL (≈ 14.3 µM); MIC [17, 39]: 50 µg/mL (≈ 57.3 µM); MIC [18, 40]: > 50 µg/mL; MIC ([25]; Staphylococcus aureus, X400): 64 µg/mL (≈ 73.3 µM); MIC [30]: 32 µg/mL (≈ 36.7 µM); MIC [28, 41]: 32 µg/mL (≈ 36.7 µM); MIC [29]: 64 µg/mL (≈ 73.3 µM)
